Laboratory results: patent EP4488279A1, “SUBSTITUTED HEXAHYDRO-2H-PYRAZINO[1,2-A]PYRAZIN-1(6H)-ONE DERIVATIVES AS ACTIVATORS OF HUMAN CASEINOLYTIC PROTEASE P (HSCLPP)” (Centro Atlantico del Medicamento S.A (Ceamed, S.A), priority 2023, dated 2025)

Experiments:
MDA-MB-231 = assay: MTT cell viability assay, MDA-MB-231; assay type: cell-based; details: Homo sapiens, MDA-MB-231 cells, 72 H, average of at least two independent experiments
Experimental: This a human breast cancer cell line derived from a metastatic site from a person.
(§1) Cell viability was assayed by measuring the mitochondrial reduction of the tetrazolium salt 3-(4,5-methyltiazol-2yl)-2,5diphenyl-tetrazolium bromide] (MTT) (Applichen; A2231,0010) [Mosmann T. J Immunol Methods. […] Oncogene. […] Cells were seeded at a density according to their exponential growth phase (normally 1000 to 5000/well). The cells were cultured at 37 °C in the dark in air containing 5% CO2. After 24h either vehicle (0.05% DMSO), or drug, was added to culture medium at the indicated concentrations (10 to 0,01microM). After another 72 h, MTT (0.3 mg/ml) was added to cells, followed by incubation for 2-4h at 37 °C in the dark. The medium was then removed, and the precipitated formazan was solubilized by the addition of DMSO (200 µL).

U2 OS = assay: MTT cell viability assay, U2 OS; assay type: cell-based; details: Homo sapiens, U2OS, U2 OS cells, 72 H, average of at least two independent experiments
Experimental: U2 OS [American Type Culture Collection (ATCC) reference number HTB-96]. This is a human bone cancer (a moderately differentiated sarcoma) cell derived from an osteosarcoma patient.
as §1

Yeast + HsCIpP = assay: Yeast growth inhibition screen, yeast expressing human ClpP; assay type: cell-based; details: Saccharomyces cerevisiae, 24 h, read-out: Yeast + HsCIpP GI50
Source text: This technique allows to directionally assemble several DNA fragments into one single DNA piece. It is based on plasmid libraries that share the same DNA backbone but differ in the type of the insert. The assembly of the final cassette is based on the "Golden Gate Cloning" method. Human CLPP gene sequence (codon-optimized for yeast translation) was amplified with well-designed primers from a plasmid kindly provided by Dr. Michael David Tyers (University of Montreal). Once amplified, a MoClo reaction was performed to obtain the final integrative cassette. This cassette was composed as follows: • Type 1: ConLS 3' connector. • Type 2: TDH3 gene promoter (strong and constitutive expression). • Type 3: Amplified human CLPP gene. • Type 4: ADH1 gene terminator. • Type 5: ConR1 5' connector. • Type 6: LEU2 gene as selectable marker for yeast. • Type 7: 3' HO gene homology sequence for yeast integration. • Type 8a: KanR-ColE1 sequence for bacterial amplification and antibiotic resistance. • Type 8b: 5' HO gene homology sequence for yeast integration.
Digestion patterns with several restriction enzymes were carried out to confirm the success of the MoClo system. An extra restriction enzyme reaction (Notl) was performed to linearize the DNA fragment and deplete the bacterial part.
(§2) These cells contain mutants in YRS1, YRR1, PDR1 and PDR3 genes, which are involved in polydrug and pleiotropic resistance networks.
Yeast cells were transformed with the linearized cassette and transformant colonies were selected on minimum media without leucine. Independent clones were checked by PCR and positive ones were stored at -80 °C until use.
(§3) The yeast (both HsCpIP+ and HsCIpP-) are incubated in petri dishes with YPD (Yeast extract peptone dextrose) at 25 °C overnight, after which a colony is isolated, suspended in a flask with fresh YPD and incubating again under the same conditions but with agitation. […] 100 µl of this solution was then placed into the appropriated wells of a standard 96-well plate. Stock solutions (DMSO, 10 mM) of the compounds to be tested are diluted in YPD to 2X of their final concentrations to be tested, and 100 µl added to the appropriate wells. 100 µl of YPD was added to wells designated as the negative control wells, while ONC206 (0.5 µM) was used as the positive control. Once all compounds were added to the plate, an initial T = 0 absorbance value was recorded at 600 Nm. The plate was then incubated at 25 °C with gentle shaking for 24 h. The plates can either be read at multiple time points using a TECAN Spark® Multimode Microplate Reader, or at the end of the experiment using a standard spectrophotometer.
(§4) Table 2: Growth inhibition (GI50) values for compounds of the present invention in yeast containing HsCIpP, and yeast without HsCIpP.

PANC1 = assay: MTT cell viability assay, PANC1; assay type: cell-based; details: Homo sapiens, PANC-1, PANC1 cells, 72 H, average of at least two independent experiments
Experimental: This a human cancer cell line derived from the pancreas of a person.
as §1

4T1 = assay: MTT cell viability assay, 4T1; assay type: cell-based; details: Mus musculus; 4T1 cells, 48 H, MTT, average of at least two independent experiments; read-out: IC50 4T1 48 H
Experimental: This a mouse epithelial breast cancer cell line classified as being triple negative and mimics human breast cancer; stage IV.
as §1, with “After another 72 h, MTT (0.3 mg/ml) was added to cells, followed by incubation for 2-4h at 37 °C in the dark.” left out

Yeast - HsCIpP = assay: Yeast growth inhibition screen, yeast without human ClpP (selectivity control); assay type: cell-based; details: Saccharomyces cerevisiae; yeast without HsCIpP, 24 h at 25 °C, absorbance at 600 nm; read-out: Yeast - HsCIpP GI50
Experimental: as §2, §3, §4

DU-145 = assay: MTT cell viability assay, DU-145; assay type: cell-based; details: Homo sapiens, DU-145 cells, 72 H, average of at least two independent experiments
Experimental: This a human prostate cancer cell line derived from a metastatic site (brain) of a person.
as §1

4T1 tumours = assay: 4T1 syngeneic tumour model in immunocompetent mice; assay type: in vivo, Balb/c mice; details: 25 mg/kg PO three times per week
Experimental: 4T1 syngeneic tumours were induced in female immunocompetent Balb/c mice by inject 12500 4T1 cells (passage# <7, in PBS, 100 µL) into their left inguinal mammary fat pad. Once tumour volumes [measure using the formula V = 0.5(length x width^2)] reached […], treatment with either vehicle, or compound in vehicle, was began. Compounds were administered orally (PO) at a constant dose (typically 25 mg/kg) three times per week (Monday, Wednesday and Friday). Compounds (as ether their free base or salt) were formulated as either solutions or homogenous suspensions in a vehicle of 10% Cremaphor RH40 + 90% saline for injection. Formulations were prepared at concentrations (mg/mL) = Dose/5 (e.g. a dose of 25 mg/Kg used a formulation of 5 mg/ml). Once treatments began, tumour volumes and body weights were recorded on each treatment day. Treatments were continued until 25-28 days after first treatment day, after which the mice were sacrificed. Animals whose tumour reached […] during the experiment were also sacrificed.

SMILES: O=C1C2CN(Cc3cccc(F)c3)CCN2CCN1Cc1cccc(Cl)c1 (stereo not drawn) [Compound 4]
- IC50 (MDA-MB-231): 450 nM
- IC50 (U2 OS): 500 nM
- GI50 (Yeast + HsCIpP): 210 nM
- IC50 (PANC1): 335 nM
- IC50 (4T1): 330 nM
- GI50 (Yeast - HsCIpP): > 10000 nM
- IC50 (DU-145): 850 nM
- changes in body weights (4T1 tumours; 4T1 tumour-bearing Balb/c mice, during the experimental period): no significant changes
- Tumour growth reduced (4T1 tumours; established 4T1 tumours, female Balb/c mice, versus vehicle, p < 0.01): 50%
